The values that follow come from ChEMBL document CHEMBL1125447, “Phenylmorphans and analogues: opioid receptor subtype selectivity and effect of conformation on activity” (J Med Chem, 1992).

Assay [1] has as its target T1, Mu-type opioid receptor (Bos taurus, UniProt P79350). As to the kind of experiment: Binding affinity towards opioid receptor mu 1.
Assay [2] deals with T1, Mu-type opioid receptor. Put plainly: Binding affinity towards opioid receptor mu 2.
Assay [3] concerns the target Kappa-type opioid receptor (Cavia porcellus, UniProt P41144). Put plainly: Binding affinity towards opioid receptor kappa 1.
The subject of another assay is Mus musculus. Put plainly: Antinociceptive activity displayed after pretreatment with selective opioid antagonist beta-FNA([…], sc). It counts as functional.

Each structure is given as a SMILES string. A value given as a limit tells only on which side of the number the result lay.

T1 sequence (P79350 whole entry): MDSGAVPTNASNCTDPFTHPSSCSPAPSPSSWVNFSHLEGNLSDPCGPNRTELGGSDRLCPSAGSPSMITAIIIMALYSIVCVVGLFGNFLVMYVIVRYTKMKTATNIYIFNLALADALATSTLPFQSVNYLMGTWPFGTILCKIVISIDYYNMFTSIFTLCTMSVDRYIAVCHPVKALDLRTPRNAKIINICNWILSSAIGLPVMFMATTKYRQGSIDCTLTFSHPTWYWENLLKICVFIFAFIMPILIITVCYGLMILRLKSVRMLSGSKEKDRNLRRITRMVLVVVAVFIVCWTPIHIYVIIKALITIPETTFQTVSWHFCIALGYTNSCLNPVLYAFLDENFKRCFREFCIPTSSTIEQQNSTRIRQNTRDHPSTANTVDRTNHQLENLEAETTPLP
Sequence of Kappa-type opioid receptor (P41144 whole entry): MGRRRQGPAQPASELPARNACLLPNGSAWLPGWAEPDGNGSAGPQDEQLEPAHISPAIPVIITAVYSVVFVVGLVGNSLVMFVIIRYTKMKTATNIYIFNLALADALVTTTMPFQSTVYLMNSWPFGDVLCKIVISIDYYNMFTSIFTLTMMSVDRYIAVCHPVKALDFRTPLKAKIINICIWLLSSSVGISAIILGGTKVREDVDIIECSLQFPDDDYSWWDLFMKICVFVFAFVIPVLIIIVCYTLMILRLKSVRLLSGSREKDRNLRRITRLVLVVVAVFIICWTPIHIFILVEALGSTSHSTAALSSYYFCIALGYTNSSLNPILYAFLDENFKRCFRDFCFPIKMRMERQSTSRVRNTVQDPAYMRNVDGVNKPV

`CC1(C)SSC(C)(C)[C@@H](NC(=O)[C@@H](N)Cc2ccc(O)cc2)C(=O)NCC(=O)N[C@@H](Cc2ccccc2)C(=O)N[C@H]1C(=O)O`: the inhibitory constant (Ki) came out at 82 nM on Mu-type opioid receptor [1] and 460 nM at Mu-type opioid receptor [2].

Consider `C[C@@H]1C2CCCC1(c1cccc(O)c1)CCN2C` (mixture of isomers), for which the inhibition constant (Ki) in assay [3] was determined as 70 nM; on Mu-type opioid receptor [1] it was 46 nM; at Mu-type opioid receptor [2] it was 190 nM.

On to `CN1CCC2(c3cccc(O)c3)CCCC1[C@H]2O` (mixture of isomers), for which the Ki in assay [3] turned out to be 110 nM; at Mu-type opioid receptor [1] it was 8.8 nM; on Mu-type opioid receptor [2], 28 nM.

As to `CN1CCC2(c3cccc(O)c3)CCCC1[C@@H]2O` (mixture of isomers), the values for the Ki (in assay [3]; at Mu-type opioid receptor [1]; on Mu-type opioid receptor [2]) were greater than 500 nM, 75 nM and greater than 275 nM, respectively.

Regarding `CN1CCC2(c3cccc(O)c3)CCCC1C2` (single isomer, unassigned; (+)), the values for the Ki (in assay [3]; on Mu-type opioid receptor [1]; at Mu-type opioid receptor [2]) were 98 nM, 3.4 nM and 19 nM, respectively. Besides, in the assay on Mus musculus, the Animals is 0%.

With `C[C@@H]1C2CCCC1(c1cccc(O)c1)CCN2C` (single isomer, unassigned; (+)), the Ki in assay [3] is 89 nM; at Mu-type opioid receptor [1] it was 140 nM; at Mu-type opioid receptor [2], greater than 600 nM.

In the case of `CN1CCC2(c3cccc(O)c3)CCCC1C2` (single isomer, unassigned; (-)), the inhibitory constant (Ki) came out at 200 nM in assay [3], 13 nM at Mu-type opioid receptor [1] and 63 nM on Mu-type opioid receptor [2].

Regarding `C[C@@H]1C2CCCC1(c1cccc(O)c1)CCN2C` (single isomer, unassigned; (-)), the figures for the Ki (in assay [3]; at Mu-type opioid receptor [1]; at Mu-type opioid receptor [2]) were 49 nM, 18 nM and 50 nM, respectively.

The Ki is the equilibrium dissociation constant of an inhibitor or competing ligand from its target. High values mean lower affinity, low ones higher affinity.
